# Experimental data reported in ChEMBL document CHEMBL4138123, “Design, synthesis and biological evaluation of novel pyrazolochalcones as potential modulators of PI3K/Akt/mTOR pathway and inducers of apoptosis in breast cancer cells” (Eur J Med Chem, 2017).
# Columns and labels:
# Type in all cases: functional
# [1] = system: NCI-H322M; experiment: Cytotoxicity against human NCI-H322M cells assessed as cell growth at 0.01 uM after 48 hrs by sulforhodamine B assay relative to control; settings: read-out: Activity
# [2] = system: MOLT-4; experiment: Cytotoxicity against human MOLT4 cells assessed as cell growth at 100 uM after 48 hrs by sulforhodamine B assay relative to control; settings: MOLT-4, 48 h, read-out: Activity
# [3] = system: RPMI-8226; experiment: Cytotoxicity against human RPMI8226 cells assessed as growth inhibition after 48 hrs by sulforhodamine B assay; settings: RPMI-8226, 48 h
# [4] = system: SN12C; experiment: Cytotoxicity against human SN12C cells assessed as cell growth at 0.1 uM after 48 hrs by sulforhodamine B assay relative to control; settings: read-out: Activity
# [5] = system: SK-OV-3; experiment: Cytotoxicity against human SKOV3 cells assessed as growth inhibition after 48 hrs by sulforhodamine B assay; settings: SK-OV-3, 48 h
# [6] = system: T47D; experiment: Cytotoxicity against human T47D cells assessed as cell growth at 10 uM after 48 hrs by sulforhodamine B assay relative to control; settings: read-out: Activity
# [7] = system: HCC 2998; experiment: Cytotoxicity against human HCC2998 cells assessed as cell growth at 0.01 uM after 48 hrs by sulforhodamine B assay relative to control; settings: HCC 2998, 48 h, read-out: Activity
# [8] = system: Hs-578T; experiment: Cytotoxicity against human Hs 578T cells assessed as cell growth at 0.1 uM after 48 hrs by sulforhodamine B assay relative to control; settings: read-out: Activity
# [9] = system: SW-620; experiment: Cytotoxicity against human SW620 cells assessed as growth inhibition after 48 hrs by sulforhodamine B assay; settings: SW-620, 48 h
# [10] = system: COLO 205; experiment: Cytotoxicity against human COLO205 cells assessed as cell growth at 10 uM after 48 hrs by sulforhodamine B assay relative to control; settings: COLO 205, 48 h, read-out: Activity
# [11] = system: A549; experiment: Cytotoxicity against human A549/ATCC cells assessed as cell growth at 0.01 uM after 48 hrs by sulforhodamine B assay relative to control; settings: A549, 48 h, read-out: Activity
# [12] = system: OVCAR-4; experiment: Cytotoxicity against human OVCAR4 cells assessed as cell growth at 1 uM after 48 hrs by sulforhodamine B assay relative to control; settings: OVCAR-4, 48 h, read-out: Activity
# [13] = system: TK-10; experiment: Cytotoxicity against human TK10 cells assessed as cell growth at 100 uM after 48 hrs by sulforhodamine B assay relative to control; settings: TK-10, 48 h, read-out: Activity
# [14] = system: 786-0; experiment: Cytotoxicity against human 786-0 cells assessed as cell growth at 0.1 uM after 48 hrs by sulforhodamine B assay relative to control; settings: 786-0, 48 h, read-out: Activity
# [15] = system: T47D; experiment: Cytotoxicity against human T47D cells assessed as cell growth at 0.1 uM after 48 hrs by sulforhodamine B assay relative to control; settings: read-out: Activity
# [16] = system: ACHN; experiment: Cytotoxicity against human ACHN cells assessed as cell growth at 0.01 uM after 48 hrs by sulforhodamine B assay relative to control; settings: read-out: Activity
# [17] = system: A549; experiment: Cytotoxicity against human A549/ATCC cells assessed as growth inhibition after 48 hrs by sulforhodamine B assay; settings: A549, 48 h
# [18] = system: A549; experiment: Cytotoxicity against human A549/ATCC cells assessed as cell growth at 1 uM after 48 hrs by sulforhodamine B assay relative to control; settings: A549, 48 h, read-out: Activity
# [19] = system: COLO 205; experiment: Cytotoxicity against human COLO205 cells assessed as cell growth at 0.1 uM after 48 hrs by sulforhodamine B assay relative to control; settings: COLO 205, 48 h, read-out: Activity
# [20] = system: SN12C; experiment: Cytotoxicity against human SN12C cells assessed as cell growth at 0.01 uM after 48 hrs by sulforhodamine B assay relative to control; settings: read-out: Activity
# [21] = system: SR; experiment: Cytotoxicity against human SR cells assessed as growth inhibition after 48 hrs by sulforhodamine B assay
# [22] = system: HCC 2998; experiment: Cytotoxicity against human HCC2998 cells assessed as growth inhibition after 48 hrs by sulforhodamine B assay; settings: HCC 2998, 48 h
# [23] = system: SNB-19; experiment: Cytotoxicity against human SNB19 cells assessed as growth inhibition after 48 hrs by sulforhodamine B assay; settings: SNB-19, 48 h; for CC50: read-out: LC50 (the source's name)
# [24] = system: OVCAR-5; experiment: Cytotoxicity against human OVCAR5 cells assessed as growth inhibition after 48 hrs by sulforhodamine B assay; settings: OVCAR-5, 48 h
# [25] = system: RPMI-8226; experiment: Cytotoxicity against human RPMI8226 cells assessed as cell growth at 0.1 uM after 48 hrs by sulforhodamine B assay relative to control; settings: RPMI-8226, 48 h, read-out: Activity
# [26] = system: HCT-116; experiment: Cytotoxicity against human HCT116 cells assessed as cell growth at 1 uM after 48 hrs by sulforhodamine B assay relative to control; settings: HCT-116, 48 h, read-out: Activity
# [27] = system: MDA-MB-435; experiment: Cytotoxicity against human MDA-MB-435 cells assessed as cell growth at 1 uM after 48 hrs by sulforhodamine B assay relative to control; settings: MDA-MB-435, 48 h, read-out: Activity
# [28] = system: HCT-15; experiment: Cytotoxicity against human HCT15 cells assessed as cell growth at 0.01 uM after 48 hrs by sulforhodamine B assay relative to control; settings: HCT-15, 48 h, read-out: Activity
# [29] = system: MOLT-4; experiment: Cytotoxicity against human MOLT4 cells assessed as cell growth at 0.1 uM after 48 hrs by sulforhodamine B assay relative to control; settings: MOLT-4, 48 h, read-out: Activity
# [30] = system: UO-31; experiment: Cytotoxicity against human UO31 cells assessed as cell growth at 1 uM after 48 hrs by sulforhodamine B assay relative to control; settings: UO-31, 48 h, read-out: Activity
# [31] = system: U-251; experiment: Cytotoxicity against human U251 cells assessed as cell growth at 1 uM after 48 hrs by sulforhodamine B assay relative to control; settings: U-251, 48 h, read-out: Activity
# [32] = system: A498; experiment: Cytotoxicity against human A498 cells assessed as growth inhibition after 48 hrs by sulforhodamine B assay; settings: A498, 48 h
# [33] = system: MDA-MB-435; experiment: Cytotoxicity against human MDA-MB-435 cells assessed as cell growth at 10 uM after 48 hrs by sulforhodamine B assay relative to control; settings: MDA-MB-435, 48 h, read-out: Activity
# [34] = system: M14; experiment: Cytotoxicity against human M14 cells assessed as cell growth at 100 uM after 48 hrs by sulforhodamine B assay relative to control; settings: M14, 48 h, read-out: Activity
# [35] = system: K562; experiment: Cytotoxicity against human K562 cells assessed as cell growth at 1 uM after 48 hrs by sulforhodamine B assay relative to control; settings: K562, 48 h, read-out: Activity
# [36] = system: MCF7; experiment: Cytotoxicity against human MCF7 cells assessed as cell growth at 100 uM after 48 hrs by sulforhodamine B assay relative to control; settings: MCF7, 48 h, read-out: Activity
compound,measurement,setting,value
COc1cc(-c2cc(/C=C/C(=O)c3ccc(Cl)c(Cl)c3)[nH]n2)cc(OC)c1OC,growth at 0.01 µM,[1],89%
same,growth at 100 µM,[2],-15%
same,LC50,[3],> 100 µM
same,TGI,[3],6.73 µM
same,growth at 0.1 µM,[4],96%
same,LC50,[5],62.5 µM
same,TGI,[5],18.8 µM
same,growth at 10 µM,[6],9%
same,growth at 0.01 µM,[7],96%
same,growth at 0.1 µM,[8],105%
same,"LC50 (lethal concentration, 50% net cell kill)",[9],> 100 µM
same,TGI,[9],79.6 µM
same,growth at 10 µM,[10],10%
same,growth at 0.01 µM,[11],101%
same,growth at 1 µM,[12],107%
same,growth at 100 µM,[13],-27%
same,growth at 0.1 µM,[14],94%
same,growth at 0.1 µM,[15],87%
same,growth at 0.01 µM,[16],107%
same,LC50 (concentration giving 50% net cell kill),[17],> 100 µM
same,TGI,[17],> 100 µM
same,growth at 1 µM,[18],93%
same,growth at 0.1 µM,[19],88%
same,growth at 0.01 µM,[20],98%
same,TGI,[21],13.5 µM
same,CC50,[21]; read-out: LC50 (the source's name),96 µM
same,LC50,[22],> 100 µM
same,TGI,[22],31.4 µM
same,TGI,[23],> 100 µM
same,CC50,[23],> 100 µM
same,LC50,[24],> 100 µM
same,TGI,[24],> 100 µM
same,growth at 0.1 µM,[25],95%
same,growth at 1 µM,[26],80%
same,growth at 1 µM,[27],90%
same,growth at 0.01 µM,[28],69%
same,growth at 0.1 µM,[29],102%
same,growth at 1 µM,[30],81%
same,growth at 1 µM,[31],87%
same,LC50,[32],> 100 µM
same,TGI,[32],43 µM
same,growth at 10 µM,[33],37%
same,growth at 100 µM,[34],20%
same,growth at 1 µM,[35],101%
COc1ccc(C(=O)/C=C/c2cc(-c3ccc(OC)c(OC)c3)n[nH]2)cc1OC,growth at 0.01 µM,[1],104%
same,growth at 100 µM,[36],-40%
same,GI50,[3],0.357 µM
same,TGI,[3],2.26 µM
same,growth at 0.1 µM,[4],98%
same,GI50,[5],3.13 µM
same,TGI,[5],33.3 µM
same,growth at 10 µM,[6],-13%
same,growth at 0.01 µM,[7],107%
same,growth at 0.1 µM,[8],91%
same,GI50,[9],1.5 µM
same,TGI,[9],5.41 µM
same,growth at 10 µM,[10],-84%
same,growth at 0.01 µM,[11],97%
same,growth at 1 µM,[12],72%
same,growth at 100 µM,[13],-12%
same,growth at 0.1 µM,[14],96%
same,growth at 0.1 µM,[15],86%
same,growth at 0.01 µM,[16],93%
same,GI50,[17],2.25 µM
same,TGI,[17],10.2 µM
same,growth at 1 µM,[18],77%
same,growth at 0.1 µM,[19],98%
same,growth at 0.01 µM,[20],101%
same,GI50,[22],1.74 µM
same,TGI,[22],3.19 µM
same,GI50,[23],1.67 µM
same,TGI,[23],4.16 µM
same,CC50,[23],> 100 µM
same,GI50,[24],1.76 µM
same,TGI,[24],5.24 µM
same,growth at 0.1 µM,[25],91%
same,growth at 1 µM,[26],21%
same,growth at 1 µM,[27],87%
same,growth at 0.01 µM,[28],96%
same,growth at 0.1 µM,[29],101%
same,growth at 1 µM,[30],72%
same,growth at 1 µM,[31],62%
same,GI50,[32],1.27 µM
same,TGI,[32],3.2 µM
same,growth at 10 µM,[33],-69%
same,growth at 100 µM,[34],-51%
same,growth at 1 µM,[35],38%
